Source: ChEMBL document CHEMBL1201862, “PubChem BioAssay data set” (2004)
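48-hour exposure; five concentrations; linearly interpolated endpoints. Abbreviation: GI50, concentration required for 50% inhibition of growth.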 The source made the active and inactive calls. Rule as the data show it: active = GI50 up to about 1.1 µM and inactive = higher.

Key:
Assay in all cases: NCI anticancer screen, dose series, 48 h
BT-549 = tested on: BT-549
CCRF-CEM = tested on: CCRF-CEM
COLO 205 = tested on: COLO 205
HOP-92 = tested on: HOP-92
HT-29 = tested on: HT-29
Hs-578T = tested on: Hs-578T
IGROV-1 = tested on: IGROV-1
LOX IMVI = tested on: LOX IMVI
M14 = tested on: M14
MOLT-4 = tested on: MOLT-4
NCI-H226 = tested on: NCI-H226
NCI-H23 = tested on: NCI-H23
OVCAR-3 = tested on: OVCAR-3
OVCAR-8 = tested on: OVCAR-8
RPMI-8226 = tested on: RPMI-8226
RXF 393 = tested on: RXF 393
SNB-19 = tested on: SNB-19
TK-10 = tested on: TK-10
UACC-62 = tested on: UACC-62
UO-31 = tested on: UO-31

Measured: GI50

CCCCc1ccc(Nc2nc(O)c3ncn(COCCO)c3n2)cc1
inactive: BT-549 > 100 µM | CCRF-CEM > 100 µM | COLO 205 > 100 µM | HOP-92 > 100 µM | HT-29 > 100 µM | Hs-578T > 100 µM | IGROV-1 > 100 µM | LOX IMVI > 100 µM | M14 > 100 µM | MOLT-4 56 µM | NCI-H226 > 100 µM | NCI-H23 93.8 µM | OVCAR-3 > 100 µM | OVCAR-8 > 100 µM | RPMI-8226 43.9 µM | RXF 393 > 100 µM | SNB-19 75.7 µM | TK-10 > 100 µM | UACC-62 > 100 µM | UO-31 > 100 µM

COc1nc(OC)nc(-c2cccc(F)c2)n1
inactive: BT-549 14 µM | CCRF-CEM 9.2 µM | COLO 205 15.4 µM | HOP-92 6.41 µM | HT-29 17.1 µM | Hs-578T 32.1 µM | IGROV-1 16.1 µM | LOX IMVI 17 µM | M14 18 µM | MOLT-4 4.99 µM | NCI-H226 13.4 µM | NCI-H23 12 µM | OVCAR-3 13.8 µM | OVCAR-8 23.4 µM | RPMI-8226 10.8 µM | RXF 393 15.9 µM | SNB-19 16.9 µM | TK-10 18.3 µM | UACC-62 8.51 µM | UO-31 16.6 µM

Cc1c2c(c(C)n1-c1ccccc1)C(=O)N(CCCCN1CCN(c3ccccc3)CC1)C2=O
inactive: BT-549 16.9 µM | CCRF-CEM 7.21 µM | COLO 205 6.62 µM | HOP-92 8.17 µM | HT-29 2.57 µM | Hs-578T 20.2 µM | IGROV-1 15.1 µM | LOX IMVI 10 µM | M14 9.53 µM | MOLT-4 5.71 µM | NCI-H226 9.68 µM | NCI-H23 6.73 µM | OVCAR-3 8.95 µM | OVCAR-8 14.2 µM | RPMI-8226 7.52 µM | RXF 393 14.5 µM | SNB-19 29 µM | TK-10 30.2 µM | UACC-62 15.8 µM | UO-31 4.17 µM

Cc1c2c(cc3c1C(=O)C(O)=C([C@@H](C)CO)C3=O)C(C)(C)CCC2
inactive: BT-549 35.2 µM | CCRF-CEM 10.1 µM | COLO 205 27 µM | HOP-92 35 µM | HT-29 15.8 µM | Hs-578T 16.7 µM | IGROV-1 29 µM | LOX IMVI 28.3 µM | M14 23.2 µM | MOLT-4 13.4 µM | NCI-H226 33.8 µM | NCI-H23 17.7 µM | OVCAR-3 27 µM | OVCAR-8 25.5 µM | RPMI-8226 31.3 µM | RXF 393 32.1 µM | SNB-19 5.07 µM | TK-10 42.4 µM | UACC-62 28.2 µM | UO-31 17.5 µM

C=C(C)CNC(=S)N(N)c1ccc(OC)cc1
inactive: BT-549 > 100 µM | CCRF-CEM 94 µM | COLO 205 > 100 µM | HOP-92 > 100 µM | HT-29 74.8 µM | Hs-578T > 100 µM | IGROV-1 58.6 µM | LOX IMVI > 100 µM | M14 > 100 µM | MOLT-4 96.6 µM | NCI-H226 > 100 µM | NCI-H23 > 100 µM | OVCAR-3 > 100 µM | OVCAR-8 > 100 µM | RPMI-8226 > 100 µM | RXF 393 > 100 µM | SNB-19 > 100 µM | TK-10 > 100 µM | UACC-62 24.2 µM | UO-31 52.6 µM
